Results on 25 molecules are retold here after patent US20150143553A1, “Methods And Compositions Comprising A Drosophila Model Of Amyotrophic Lateral Sclerosis” (priority 2013, published 2015).

Where a name gives a salt, the structure may show the parent alone.

In the first test the test system is Drosophila larvae expressing wild-type TDP-43 in motor neurons. The test is described as follows: Drug screen: rescue of lethality caused by wild-type TDP-43 expression in motor neurons (D42 Gal4). It is filed as in vivo. The settings on record: transgene WT2; 30 μM in fly food.
With `CCCc1nc2c(C)cc(-c3nc4ccccc4n3C)cc2n1Cc1ccc(-c2ccccc2C(=O)O)cc1` [′Telmisartan], the “Preliminary rescue result: adults with normal wings” value (“Preliminary rescue result: adults” for short) is 2/2 Adult Normal Wings. Same read-out and setting: as for Carbinoxamine Maleate Salt, the figure is 1 Adult Normal Wings Adults.

Turning to Verteporfin, the “Preliminary rescue result: adults” value worked out at 1 Adult Normal Wings Adults.

Staying with this test, now noted: transgene WT2; 50 μM in fly food.
Take Thioproperazine Dimesylate: the “Preliminary rescue result: adults” value worked out at 1 Adult Normal Wings Adults.

The subject of another test is Drosophila larvae expressing G298S TDP-43 in motor neurons. Briefly: Drug screen: rescue of lethality caused by G298S TDP-43 expression in motor neurons (D42 Gal4). It is filed as in vivo. The note with it: transgene G298S4; 30 μM in fly food. From the text: […] Larvae expressing TDP-43 (wild type or mutant, as shown) are raised on drug containing food.
[…] Larvae expressing TDP-43 (wt or mutant) were raised on drug containing food.
Using a Drosophila model of ALS based on TDP-43 that recapitulates several aspects of the disease pathophysiology (33, 35), a drug screen aimed at identifying FDA approved compounds with neuroprotective potential in vivo were designed (FIG. 37A). […] This phenotype was used to screen for drug candidates with therapeutic potential as determined by their ability to rescue pupal lethality and produce viable adults with extended wings (FIG. 37A).
Larvae expressing TDP-43 in motor neurons (D42>TDP-43) were raised on fly food containing different amounts of drug (1, 10 and 25 μM, see Materials and Methods for details) or Dimethyl Sulfoxide (DMSO) as vehicle control (FIG. 37B, C).
UAS TDP-43 males were crossed with D42-Gal4 female virgins on fly food containing either DMSO or pioglitazone. For DMSO controls, the same volume of DMSO as the corresponding drug concentration was added. Bromophenol blue was added to a final concentration of approximately 0.02% to ensure homogeneity. Crosses were made on drug food with 3 female virgins and 2 males in each vial, and were maintained at 25° C. unless noted. The parents were discarded after 5-7 days then the vials were screened for adult progeny with straight wings from day 14 to day 25. All adults were screened for TDP-43 expression by visualizing the YFP tag. Total number of pupae was counted on day 25. Percent survival was calculated using the formula (total number of straight-winged adults/total number of pupae)×100. All experiments were performed in triplicate.
Regarding `c1ccc(-c2ccc(C(c3ccccc3)n3ccnc3)cc2)cc1` (stereo not shown) [Bifonazole], the “Preliminary rescue result: adults” value stood at 1 Adult Normal Wings Adults.

Staying with this test, now noted: transgene G298S; 30 μM in fly food.
Regarding `Nc1nc(NC2CC2)c2ncn([C@H]3C=C[C@@H](CO)C3)c2n1` [Abacavir Sulfate], the “Preliminary rescue result: adults” value turned out to be 1 Adult Normal Wings Adults. `CCn1nc(C(=O)O)c(=O)c2cc3c(cc21)OCO3` [Cinoxacin]: the “Preliminary rescue result: adults” value is 1 Adult Normal Wings Adults. The same measure, in the same setting: the result for `CCC1(c2cccc(O)c2)CCCCN(C)C1` (stereo not shown) [Meptazinol Hydrochloride] reads 1 Adult Normal Wing Adults; that for `CN(Cc1cc(Br)cc(Br)c1N)C1CCCCC1.Cl` [Romhexine Hydrochloride], 1/2 Adult Normal Wings. For `Cn1c([N+](=O)[O-])cnc1COC(N)=O` [Ronidazole], the “Preliminary rescue result: adults” value stood at 1 Adult Normal Wings Adults. Turning to `O=C(NCCNCC(O)COc1ccc(O)cc1)N1CCOCC1.O=C(NCCNCC(O)COc1ccc(O)cc1)N1CCOCC1.O=C(O)/C=C/C(=O)O` (stereo not shown) [Xamoterol HemifiμMarate], the “Preliminary rescue result: adults” value is 1 Adult Normal Wing Adults.

Still in this test, the particulars now being: transgene G298S; 50 μM in fly food.
On to `NCCCNCCSP(=O)(O)O` [Amifostine], for which the “Preliminary rescue result: adults” value stood at 1 Adult Normal Wings Adults. As for `CN(C)CCC=C1c2ccccc2CCc2ccccc21.Cl` [Amitryptiline Hydrochloride], the “Preliminary rescue result: adults” value is 1 Adult Normal Wings Adults.

For the molecule `C[C@H](CCC(=O)O)[C@H]1CC[C@H]2[C@@H]3[C@H](O)C[C@@H]4C[C@H](O)CC[C@]4(C)[C@H]3CC[C@]12C` [Chenodiol], the “Preliminary rescue result: adults” value stood at 1 Adult Normal Wings Adults. Still for that read-out and setting: as for `CN1CCN(C2=Nc3cc(Cl)ccc3Nc3ccccc32)CC1` [Clozapine], the figure is 1 Adult Normal Wings Adults; as for `CCN(CC)C(=O)/C(C#N)=C/c1cc(O)c(O)c([N+](=O)[O-])c1` [Entacapone], 5 Adult Normal Wings Adults.

`O=C(O)c1ccccc1Nc1cccc(C(F)(F)F)c1` [Flufenamic Acid]: the “Preliminary rescue result: adults” value was 1 Adult Normal Wings Adults. On the same count and under the same terms, as for `COc1cc2ncnc(Nc3ccc(F)c(Cl)c3)c2cc1OCCCN1CCOCC1` [Gefitinib], the figure is 1 Adult Normal Wings Adults; as for `C[N+]1(C)CCOC(O)(c2ccc(-c3ccc(C4(O)C[N+](C)(C)CCO4)cc3)cc2)C1.[Br-].[Br-]` (stereo not shown) [Hemicholinium Bromide], 1 Adult Normal Wings Adults. Take `Nc1ccn([C@@H]2CS[C@H](CO)O2)c(=O)n1` [Lamivudine]: the “Preliminary rescue result: adults” value came out at 2 Adults Normal Wings. As for `C[N+]1(C)CCCC(OC(=O)C(O)(c2ccccc2)c2ccccc2)C1` (stereo not shown) [Mepenzolate Bromide], the “Preliminary rescue result: adults” value is 2 Adult Normal Wings Adults.

Take `Cc1ccccc1C(OCCN(C)C)c1ccccc1` (stereo not shown) [Orphenadrine]: the “Preliminary rescue result: adults” value was found to be 1 Adult Normal Wings Adults. Same read-out and setting: the result for `CN(C)CCC(c1ccccc1)c1ccccn1` (stereo not shown) [Pheniramine Maleate] reads 1 Adult Normal Wings Adults. Same read-out and setting: as for `O=c1n(CCCN2CCN(c3cccc(Cl)c3)CC2)nc2ccccn12` [Trazodone], the figure is 1 Adult Normal Wings Adults; as for `COc1ccc(C(CN(C)C)C2(O)CCCCC2)cc1` (stereo not shown) [Venlafaxine], 1 Adult Normal Wings Adults.
